This is an account of results in patent EP1353942B1, “PEPTIDE INHIBITORS OF HIV ENTRY” (WHITEHEAD INSTITUTE FOR BIOMEDICAL RESEARCH, priority 2000, dated 2010).

Where two headings read alike, the source gives them in different places.

For data set [1], the target named is HIV-1 gp41 (C peptide region), from HXB2 gp160 envelope on pseudotyped virus (HIV-1 (HXB2)) (UniProt P04578). Briefly: cell-based or functional assay.
Data set [2] in a line: Circular dichroism (ellipticity at 222 nm, helicity). It is filed as physicochemical. The following applies: IZN17 at 20 µM. The procedure:
(§1) Circular Dichroism. All CD measurements were performed on an Aviv 62 DS cirucular dichroism spectrometer. Standard scans were performed on 10 µM solutions of peptide in PBS (50 mM sodium phosphate, 150 mM sodium chloride [pH 7.4]) from 200 to 260 nm in a 1 cm pathlength cuvette with a 5 second averaging time. The mean residue ellipticity (θ) was calculated by dividing the raw signal by peptide concentration (M), pathlength (mm) and number of amino acids. Percent helicity was calculated according to Chen et al. (Biochemistry, 13, 1974, p3350). Thermal denaturation scans of 10 µM peptide solutions in PBS were recorded at 222 nm. The peptide was heated at two degree intervals starting at 4°C, with an equilibration time of 1.5 minutes and an averaging time of 60 seconds.
The following Table summarizes the biophysical data and inhibitory activity for the chimeric coiled coil N peptides. The first column (θ222nm) is circular dichroism data, representing the helicity of each peptide. The lower the number, the more helical. The second column is the melting temperature and signifies the temperature at which half of the peptide is unfolded. The next column (Mobs/Mcalc) signifies the oligomeric state of the peptide, with 3.0 being a discrete trimer. The final column is the concentration at which each peptide is at half maximal inhibitory potency for viral infection. Table 1. […]

Data set [3] in a line: Thermal denaturation followed by circular dichroism at 222 nm. Type of data set: physicochemical. As to the method: as §1
(§2) The following Table summarizes the biophysical data and inhibitory activity for the chimeric coiled coil N peptides. The first column (θ222nm) is circular dichroism data, representing the helicity of each peptide. The lower the number, the more helical. The second column is the melting temperature and signifies the temperature at which half of the peptide is unfolded. The next column (Mobs/Mcalc) signifies the oligomeric state of the peptide, with 3.0 being a discrete trimer. The final column is the concentration at which each peptide is at half maximal inhibitory potency for viral infection. Table 1. Biophysical data and HIV-1 inhibitory activity
(§3) The second column is the ellipticity at 222 nm of a 20 µM solution of peptide in PBS. The third column lists the midpoint of thermal denaturation of 10 µM solutions of peptide in PBS.

The nature of data set [4]: Sedimentation equilibrium (analytical ultracentrifugation). It is filed as physicochemical. The following applies: for Mobs/Mcalc: 20 µM peptide solutions in PBS, 3.0 being a discrete trimer. As to the method:
Sedimentation Equilibrium. All measurements were recorded on a Beckman XL-A analytical ultracentrifuge equipped with an An-60 Ti rotor. Lyophilized peptide was resuspended in water, and the peptide concentration was determined (Edelhoch, 1967). The solution was diluted to 100-200 µM and then dialized overnight against PBS. Following dialysis, the concentration was redetermined and the appropriate dilutions were made, using the dialysis buffer. The samples were centrifuged at speeds ranging from 19,000 to 25,000 RPM.
as §2, §3

Another data set concerns HIV-1. As to the method:
HIV Infectivity Assay. Inhibitory activity was determined in an HIV luciferase assay (Chen et al., 1994). Specifically, virus was made by cotransfecting 293T cells with an HIV-1 genome containing a frame-shift mutation in env and luciferase replacing the nef gene (NL43LucR-E-) along with pCMVHXB2, an expression vector with the HXB2 gp160 gene. The resultant virus is only viable for one round of infection since its genome lacks the envelope gene. The cellular debris was removed by low-speed centrifugation. The remaining viral supernatant was used to infect HOS-CD4/Fusion cells (N. Landau, National Institutes of Health AIDS Reagent Program) in the presence of the potentially inhibitory peptides. Two days post-infection, the cells were lysed and luciferase activity was monitored on a Wallac AutoLumat LB953 luminometer (Gaithersburg, MD). IC50s (the peptide concentration at which half of the viral infection is inhibited) were calculated by fitting the data to a Langmuir equation [y = k/(1+[peptide]/IC50)], where y = luciferase activity and k is a scaling constant.

In data set [1], IZN17 (peptide) displayed an IC50 (nm), HIV-1 luciferase viral infectivity assay (HXB2 env pseudotyped virus on HOS-CD4/Fusin cells) of 5.6 nM.
Take “Ac-IKKEIEAIKKEQEAIKKKIEAIEKLLQLTVWGIKQLQARIL-NH2 [IZN17]”: the “helicity (in words)” value in data set [2] was “helical”. For the same substance, the “thermal denaturation temperature relative to IQN17” value in data set [3] (In 2 M GuHCl) is recorded as “ten degrees higher”. The “Melting Temperature” value in data set [3] (midpoint of thermal denaturation of 10 µM solutions of peptide in PBS) was >100 °C. In addition, the “melt (thermal unfolding)” value in data set [3] (no denaturant) is “above 100 °C”. The Mobs/Mcalc in data set [4] is recorded as 3.05. Also, in data set [4] (sedimentation equilibrium, IZN17 at 20 µM), the “oligomeric state (in words)” value is listed as “discretely trimeric”. Also, the concentration for half-maximal inhibition (IC50) in the data set with HIV-1 (concentration of peptide at which half of viral infectivity is inhibited, HOS-CD4/Fusion cells, HXB2 envelope, tentative values) is 5.6 nM; in the data set on HIV-1 (read-out: IC50 in the viral infectivity assay, viral infectivity assay), ~5.6 nM.
“Ac-YGGIKKEIEAIKKEQEAIKKKIEAIEKEIVQARQLLSGIVQQQNNLLRAIEAQQH-NH2 [IZN26]”: the Mobs/Mcalc entry in data set [4] was “∼2.87”.
